Measured values from patent publication US7803930B2, “Antisense modulation of apolipoprotein B-expression” (Isis Pharmaceuticals, Inc., priority 2002, dated 2010).
In the oligonucleotide strings, read from the 5' end, every base follows the letter of its sugar. An asterisk marks phosphorothioate; unmarked linkages are phosphodiester. Other units and linkages are bracketed, terminal groups are in braces. A string of capitals states the bases alone. e = 2'-O-(2-methoxyethyl) (MOE); [5mC] = 5-methylcytosine; d = 2'-deoxy (DNA)

What was measured:
[1] = Lean mice, 6 weeks (Example 66): serum lipids and liver enzymes; assay type: in vivo, mouse; details: serum
Description: (§1) The accumulation of lipids in liver tissue was also evaluated in lean mice. Male […] mice (Charles River Laboratories (Wilmington, Mass.) at 6 to 7 weeks of age were maintained on a standard rodent diet and were treated twice weekly with intraperitoneal injections of 25 or 50 mg/kg 147764 (SEQ ID NO: 109) or 147483 (SEQ ID NO: 79) for 6 weeks. Saline treated animals served as controls. Each treatment group was comprised of 4 animals. Animals were sacrificed after the 6 week treatment period, at which point liver tissue and serum were collected.
Total cholesterol, LDL-cholesterol, HDL-cholesterol and triglycerides in serum were measured by routine clinical analysis using an Olympus Clinical Analyzer (Olympus America Inc., Melville, N.Y.). The liver enzymes ALT and […] in serum were also measured using the Olympus Clinical Analyzer.

[2] = High fat fed mice (Example 65): ALT and AST levels; assay type: in vivo, mouse
Description: (§2) Male C57Bl/6 mice were divided into the following groups, consisting of 5 animals each: (1) mice on a lean diet, injected with saline (lean control); (2) mice on a high fat diet; (3) mice on a high fat diet injected with 50 mg/kg of the control oligonucleotide 141923 (SEQ ID NO: 858); (4) mice on a high fat diet given 20 mg/kg atorvastatin calcium (Lipitor®, Pfizer Inc.); (5) mice on a high fat diet injected with 10, 25 or 50 mg/kg ISIS 147764 (SEQ ID NO: 109). Saline and oligonucleotide treatments were administered intraperitoneally twice weekly for 6 weeks. Atorvastatin was administered daily for 6 weeks. At study termination, liver samples were isolated from each animal and RNA was isolated for Northern blot qualitative assessment, DNA microarray and quantitative real-time PCR. Northern blot assessment and quantitative real-time PCR were performed as described by other examples herein.
(§3) Mouse apolipoprotein B mRNA and serum cholesterol levels, measured as described herein, were evaluated to confirm antisense inhibition by ISIS 147764 and ISIS 147483. […] The 50 mg/kg dose of ISIS 147483 increased ALT and AST levels.

[3] = test system: apolipoprotein B mRNA; test: ob/ob mice (Example 50): apolipoprotein B mRNA levels in liver; assay type: in vivo, mouse; details: high fat high cholesterol diet, 50 mg/kg i.p. twice a week, six weeks
Description: (§4) Ob/ob mice receiving a high fat, high cholesterol diet (60% kcal fat supplemented with 0.15% cholesterol) were treated with one of several oligonucleotides to evaluate their effect on apolipoprotein B-related phenotypic endpoints in ob/ob mice. After overnight fasting, mice from each group were dosed intraperitoneally twice a week with 50 mg/kg of ISIS 147483 (SEQ ID NO: 79), or 147764 (SEQ ID NO: 109), or the controls ISIS 116847 (SEQ ID NO: 857), or 141923 (SEQ ID NO: 858), or saline for six weeks. At study termination and forty eight hours after the final injections, animals were sacrificed and evaluated for target mRNA levels in liver, cholesterol and triglyceride levels, liver enzyme levels, serum glucose levels, and PTEN levels.

[4] = test system: apolipoprotein B mRNA; test: Lean mice, 6 weeks (Example 66): apolipoprotein B mRNA; assay type: in vivo, mouse
Description: as §1
Apolipoprotein B mRNA levels were measured by real-time PCR as described by other examples herein. The data, shown in Table 51, represent the average of 4 animals and are presented as inhibition relative to saline treated controls.

[5] = ob/ob mice (Example 50): cholesterol, lipid, triglyceride, liver enzyme and glucose levels; assay type: in vivo, mouse; details: high fat high cholesterol diet, 50 mg/kg i.p. twice a week, six weeks
Description: as §4

[6] = test system: mouse apolipoprotein B mRNA; test: High fat fed mice (Example 65): mouse apolipoprotein B mRNA and serum cholesterol levels; assay type: in vivo
Description: as §2, §3

## ATGTCAATGCCACATGTCCA (antisense eA*eT*eG*eT*e[5mC]*dA*dA*dT*dG*d[5mC]*d[5mC]*dA*d[5mC]*dA*dT*eG*eT*e[5mC]*e[5mC]*eA) [ISIS 147483]
[1]; 25 mg/kg i.p. twice weekly
  HDL-cholesterol: 117 mg/dL
  LDL-cholesterol: 26 mg/dL
  Liver Enzymes ALT: 73 IU/L
  Liver Enzymes AST: 78 IU/L
  Total cholesterol: 153 mg/dL
  Triglycerides: 138 mg/dL
[1]; 50 mg/kg i.p. twice weekly
  HDL-cholesterol: 131 mg/dL
  LDL-cholesterol: 39 mg/dL
  Liver Enzymes ALT: 57 IU/L
  Liver Enzymes AST: 72 IU/L
  Total cholesterol: 183 mg/dL
  Triglycerides: 127 mg/dL
[2]; 50 mg/kg
  ALT and AST levels: increased
[2]; 10 and 25 mg/kg
  ALT or AST levels: did not significantly elevate
[3]
  apolipoprotein B mRNA levels: able to lower
[4]; 25 mg/kg i.p. twice weekly
  % Inhibition apolipoprotein B mRNA: 79%
[4]; 50 mg/kg i.p. twice weekly
  % Inhibition apolipoprotein B mRNA: 91%
[4]; 25 or 50 mg/kg i.p. twice weekly
  inhibition of apolipoprotein B mRNA expression: in a dose-dependent manner
[5]
  glucose, cholesterol, and triglyceride levels: able to lower
[6]
  mouse apolipoprotein B mRNA and serum cholesterol levels: lowered in a dose-dependent manner
